Results taken from PubChem BioAssay (NCI).
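Assay format: 96-well plates, 48-hour exposure. GI50 marks 50% less growth. TGI: total growth inhibition.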

Legend:
Assay in all cases: inhibition of tumour cell growth, NCI panel, 48 h
[1] = tested on: OVCAR-4 ovarian
[2] = tested on: M14 melanoma
[3] = tested on: SW-620 colon
[4] = tested on: SF-268 CNS
[5] = tested on: HL-60(TB) leukemia
[6] = tested on: EKVX NSCLC
[7] = tested on: IGROV1 ovarian
[8] = tested on: SK-MEL-5 melanoma
[9] = tested on: RPMI-8226 leukemia

Structure (SMILES): Nc1c(-c2cn(Cc3ccccc3)c3ccccc23)[n+]([O-])c2ccccc2[n+]1[O-]
- TGI [1]: > 100 µM
- TGI [2]: 74.3 µM
- TGI [3]: > 100 µM
- TGI [4]: > 100 µM
- TGI [5]: 42.6 µM
- TGI [6]: > 100 µM
- TGI [7]: > 100 µM
- TGI [8]: 51.3 µM
- TGI [9]: > 100 µM

Structure (SMILES): O=C1/C(=C\c2ccc(F)cc2)CN(C(=O)c2ccccc2)C/C1=C\c1ccc(F)cc1
- GI50 [1]: 1.84 µM
- TGI [1]: 18.1 µM
- GI50 [2]: 2.05 µM
- TGI [2]: 4.65 µM
- GI50 [5]: 3.56 µM
- TGI [5]: > 100 µM
- GI50 [7]: 3.33 µM
- TGI [7]: 10.7 µM
- GI50 [8]: 1.66 µM
- TGI [8]: 3.8 µM
- GI50 [9]: 0.296 µM
- TGI [9]: 1.17 µM

Structure (SMILES): COc1cccc2ccc(C(=O)c3ccccc3)nc12
- TGI [1]: > 100 µM
- TGI [2]: > 100 µM
- TGI [3]: > 100 µM
- TGI [4]: > 100 µM
- TGI [6]: > 100 µM
- TGI [7]: > 100 µM
- TGI [8]: > 100 µM
- TGI [9]: > 100 µM

Structure (SMILES): CN1C(=O)CCC2[C@@H]3CC=C4C[C@@H](O)CC[C@]4(C)C3CC[C@@]21C (some centres undefined)
- TGI [1]: > 100 µM
- TGI [2]: > 100 µM
- TGI [3]: > 100 µM
- TGI [5]: 56 µM
- TGI [6]: > 100 µM
- TGI [7]: > 100 µM
- TGI [8]: 50.3 µM
- TGI [9]: > 100 µM

Structure (SMILES): COc1ccc2c(c1)[n+]([O-])c(-c1ccc([N+](=O)[O-])cc1)c(N)[n+]2[O-]
- TGI [1]: > 100 µM
- TGI [2]: > 100 µM
- TGI [3]: > 100 µM
- TGI [4]: > 100 µM
- TGI [5]: > 100 µM
- TGI [6]: > 100 µM
- TGI [7]: > 100 µM
- TGI [8]: > 100 µM

Structure (SMILES): O=C1CC(c2c(-c3ccccc3)[nH]c3ccccc23)C(=O)N1 (centres undefined)
- TGI [1]: > 100 µM
- TGI [2]: > 100 µM
- TGI [3]: > 100 µM
- TGI [5]: > 100 µM
- TGI [6]: > 100 µM
- TGI [7]: > 100 µM
- TGI [8]: > 100 µM
- TGI [9]: > 100 µM

Structure (SMILES): C#CCNC(=O)N(CC#C)N=O
- TGI [1]: > 100 µM
- TGI [2]: > 100 µM
- TGI [3]: > 100 µM
- TGI [4]: > 100 µM
- TGI [5]: 63.4 µM
- TGI [6]: > 100 µM
- TGI [7]: > 100 µM
- TGI [8]: > 100 µM

Structure (SMILES): COc1ccc(C(CCC(C)=O)C(=O)O)cc1OC (centres undefined)
- TGI [1]: > 100 µM
- TGI [3]: > 100 µM
- TGI [4]: > 100 µM
- TGI [6]: > 100 µM
- TGI [7]: > 100 µM
- TGI [8]: > 100 µM
- TGI [9]: > 100 µM

Structure (SMILES): N.N.NCCCCCN.O=C([O-])CCl.O=C([O-])CCl.O=C([O-])CCl.O=C([O-])CCl.[Pt+4].[Pt+4]
- GI50 [1]: 10.2 µM
- TGI [1]: 48.3 µM
- GI50 [2]: 9.28 µM
- TGI [2]: 33.5 µM
- GI50 [3]: 4.58 µM
- TGI [3]: > 100 µM
- GI50 [4]: 2.13 µM
- TGI [4]: 36.8 µM
- GI50 [5]: 1.43 µM
- TGI [5]: 11.2 µM
- GI50 [6]: 17 µM
- TGI [6]: 58.2 µM
- GI50 [7]: 18 µM
- TGI [7]: 67.3 µM
- GI50 [8]: 4.68 µM
- TGI [8]: 18.3 µM
- GI50 [9]: 44.9 µM
- TGI [9]: > 100 µM

Structure (SMILES): Cc1cc([N+](=O)[O-])ccc1NC(=O)C(=O)C(C(=O)c1ccccc1-c1ccccc1)C1OC(=O)c2ccccc21 (centres undefined)
- TGI [1]: 77.9 µM
- TGI [2]: 27.4 µM
- TGI [3]: 36.6 µM
- TGI [4]: 58.1 µM
- TGI [7]: 67.8 µM
- TGI [8]: 28.7 µM
- TGI [9]: 98 µM

Structure (SMILES): c1ccc([CH2][Sn]([CH2]c2ccccc2)([O]c2cccc3cccnc23)[O]c2cccc3cccnc23)cc1
- GI50 [1]: 0.184 µM
- TGI [1]: 0.374 µM
- GI50 [2]: 0.46 µM
- TGI [2]: 1.75 µM
- GI50 [3]: 0.188 µM
- TGI [3]: 0.376 µM
- GI50 [4]: 1.2 µM
- TGI [4]: 7.04 µM
- GI50 [5]: 0.314 µM
- TGI [5]: > 100 µM
- GI50 [6]: 0.741 µM
- TGI [6]: 1.99 µM
- GI50 [7]: 0.403 µM
- TGI [7]: 1.23 µM
- GI50 [8]: 0.213 µM
- TGI [8]: 0.415 µM

Structure (SMILES): Cc1ccc(S(=O)(=O)c2ccc(NC(=O)SCCC(=O)O)cc2)cc1
- TGI [1]: > 100 µM
- TGI [2]: > 100 µM
- TGI [3]: > 100 µM
- TGI [4]: > 100 µM
- TGI [5]: > 100 µM
- TGI [6]: > 100 µM
- TGI [7]: > 100 µM
- TGI [9]: > 100 µM

Structure (SMILES): C[C@]12CCc3nc(Nc4cccc(O)c4)sc3C1=CC[C@@H]1[C@@H]2CC[C@]2(C)/C(=N\NC(N)=S)CC[C@@H]12
- GI50 [2]: 1.96 µM
- TGI [2]: 5 µM
- GI50 [3]: 1.91 µM
- TGI [3]: 3.8 µM
- GI50 [4]: 1.66 µM
- TGI [4]: 4.45 µM
- GI50 [5]: 2.53 µM
- TGI [5]: 8.31 µM
- GI50 [6]: 2.74 µM
- TGI [6]: 9.26 µM
- GI50 [7]: 2.31 µM
- TGI [7]: 6.25 µM
- GI50 [8]: 1.8 µM
- TGI [8]: 3.63 µM

Structure (SMILES): COC1OC(CO)C(O)C(OC(C)=O)C1NC(=O)N(CCCl)N=O (centres undefined)
- TGI [1]: > 100 µM
- TGI [2]: > 100 µM
- TGI [3]: > 100 µM
- TGI [4]: > 100 µM
- TGI [5]: > 100 µM
- TGI [6]: > 100 µM
- TGI [7]: > 100 µM
- TGI [8]: > 100 µM

Structure (SMILES): CCOC(=O)C1SC(=Nc2cccc(Cl)c2C)N=C1C (centres undefined)
- TGI [1]: 89.5 µM
- TGI [3]: 57.5 µM
- TGI [4]: > 100 µM
- TGI [5]: 46.8 µM
- TGI [6]: > 10 µM
- TGI [7]: > 100 µM
- TGI [9]: 69.9 µM

Structure (SMILES): COc1ccc(OC(C)=O)c2c1CCC=CC2=O
- TGI [1]: 36.1 µM
- TGI [2]: 19.7 µM
- TGI [3]: 28.8 µM
- TGI [5]: 6.7 µM
- TGI [7]: 34.4 µM
- TGI [8]: 28.9 µM
- TGI [9]: 3.96 µM

Structure (SMILES): O=C1/C(=N\O)c2ccccc2S1(=O)=O
- TGI [1]: > 100 µM
- TGI [2]: > 100 µM
- TGI [3]: > 100 µM
- TGI [4]: > 100 µM
- TGI [5]: > 100 µM
- TGI [7]: > 100 µM
- TGI [8]: > 100 µM
- TGI [9]: > 100 µM

Structure (SMILES): CCN(CC)CC(C)(C)C(=O)/C=C/c1cccc(/C=C/C(=O)C(C)(C)CN(CC)CC)c1
- TGI [1]: 1.41 µM
- TGI [2]: 2.82 µM
- TGI [3]: 0.419 µM
- TGI [4]: 1.68 µM
- TGI [6]: 2.53 µM
- TGI [7]: 2.23 µM
- TGI [8]: 2.97 µM
- TGI [9]: > 100 µM
